Test results reported in US20240165196A1, “Beta-Lactamase Inhibitors” (VIB VZW, priority 2021, published 2024).

Key:
Assay type in all cases: cell-based
[1] = system: uro-pathogenic E. coli strain (UPEC strain blaTEM-1); assay: MIC of ampicillin on the uro-pathogenic strain; details: 32 μg/ml of TEM3.2 or tazobactam
Experimental: Vehicle alone (0.9% NaCl) was also administered (IV).
Determination of MIC values using the broth microdilution in the 96-well plate (BD Biosciences, Belgium) according to the EUCAST guideline, which was performed in 96-well polystyrene flat bottom microtiter plates (BD Biosciences). Briefly, a single colony was inoculated into 5 mL Difco™ Mueller Hinton Broth (BD Biosciences Ref 275730) and grown to the end-exponential growth phase in a shaking incubator at 37° C. Cultures were subsequently diluted to an MacFarland (0.5 optical density) then the culture was diluted to reach 10^6 CFU/mL in fresh MHB medium. 50 μl of different concentration of peptides ranging from 128 to 2 μg/mL were serially diluted to the sterile 96-well plate in MHB. 50 μL of the diluted bacteria in MHB were pipetted into 96-well plates to reach the final volume of 100 μL. The bacteria grown with the maximum concentration of carrier and medium were considered as positive and negative controls, respectively. The plates were statically incubated overnight at 37° C. to allow bacterial growth. OD was measured at 590 nm a multipurpose ultraviolet-visible plate reader, and the absorbance of the growth bacteria was measured using absorbance reader. Bacterial growth was also visually inspected and agreed well with the OD reading.

[2] = system: E. coli strains carrying NDMs; assay: checkerboard assay (FICI), TEM3.2 and penicillin; details: strains containing NDMs; significant spread
From the text: FIGS. 4A-4K. […] IV—Intravenous, IP—Intraperitoneal, SC—Subcutaneously. The data shown is from a single experiment with 4 animals per group. […] (ns—non significant, #—P>0.05, *—P≤0.05, ***—P≤0.01, ****—P≤0.001). (FIG. 4G) FICI plot as in FIG. 2, for the E. coli strains indicated and the combination of penicillin and the TEM3.2 peptide. […] (FIG. 4J) Same as FIG. 4H for peptide BGAL. (FIG. 4K) Same as FIG. 4H for peptide P33.
As we wondered about the generality of our peptide design approach, we set out to design a peptide to inactivate a structurally unrelated beta-lactamase. […] This enzyme was first isolated from a patient in 200850, by 2010 could be detected in clinical isolates throughout the UK and India^51 and by 2015 was detected in over 70 countries worldwide^52.
For the analysis of the synergy between the peptides with other antibiotics, a checkerboard assay was performed. […] FICI is calculated as the sum of the individual fractional inhibitory concentrations (FICs) for each drug (where MIC A and MIC B denote the MIC of each drug alone, and MIC AA+B and MIC BA+B denote the concentrations of A and B in the drug combination). […]

[3] = system: E. coli UZ_TEM104; assay: FACS analysis with Propidium Iodide and pFTAA
Experimental: FIGS. 3A-3P. […] Three replicates are shown for each condition. […] A single representative image is shown. […] Three replicates are shown for each condition. (FIG. 3E) [Left] […] [Middle] […] [Right] […] A single representative image is shown. […] A single representative image is shown. […] A single representative image is shown. […] A single representative blot is shown. […] 106 cells were analysed for the plot.
First, we tested the assay using a mixture of live and heat inactivated (FIG. 3L) or just live bacteria (FIG. 3M), showing that heat inactivated, but not live bacteria are stained with PI, and neither are stained with pFTAA.
Bacterial cells in the cleaned suspensions were stained with both propidium iodide (PI) and FITC peptide to evaluate the killing rate and peptide uptake in a two-dimensional analysis. […] Treated bacteria washed with PBS buffer two times. One microliter of PI (Invitrogen) was added to the bacteria and incubated for 5 min. The bacteria were used by FACS tubes for 40000 events. To correlate the activity of the peptides with cell death, the fluorescence intensity was measured in two channels using the Gallios™ Flow Cytometer (Beckman Coulter, USA), PI: excitation 536 nm and emission 617 nm, FITC: excitation 490 nm and emission 525 nm. Heated bacteria at 90° C. for 10 min were used as PI-positive control.

[4] = system: E. coli strain UZ_TEM104

Ac-RLTAFLHNRRPRLTAFLRQRR-NH2 [TEM3.2]
MIC Ampicillin in the presence of additive [1]: 25 µg/mL | synergy with penicillin (FICI) [2]: little or no synergy | cells with non-lethal aggregation (shift only in pFTAA channel) ([3]; 50 μg/mL TEM3.2 in PBS, 4 h): > 99% | change in PI (cell death) and pFTAA (aggregation) channels ([3]; 400 μg/mL penicillin G and 50 μg/mL TEM3.2, 4 h): shift in both channels

Ac-RLTAFLHNRRPRLTAFLHNRR-NH2 [TEM3.0]
reduction of the MIC of penicillin G ([4]; additive at fixed 50 μg/mL): 8 fold | MIC penicillin ([4]; in presence of additive at 50 μg/mL): 200 µg/mL
